Active and inactive are the calls of the source.
Key:
Assay type in all cases: functional, cell-based
EOL1 = assay: Cell viability (EOL-1 cells) (CellTiterGlo); conditions: Homo sapiens
[1] = biological target: T1, Bromodomain-containing protein 7 (Homo sapiens, UniProt Q9NPI1); assay: Degradation of BRD7 in RI-1 cells (8 h) (Western Blot degradation assay)
T1 sequence (Q9NPI1 whole entry): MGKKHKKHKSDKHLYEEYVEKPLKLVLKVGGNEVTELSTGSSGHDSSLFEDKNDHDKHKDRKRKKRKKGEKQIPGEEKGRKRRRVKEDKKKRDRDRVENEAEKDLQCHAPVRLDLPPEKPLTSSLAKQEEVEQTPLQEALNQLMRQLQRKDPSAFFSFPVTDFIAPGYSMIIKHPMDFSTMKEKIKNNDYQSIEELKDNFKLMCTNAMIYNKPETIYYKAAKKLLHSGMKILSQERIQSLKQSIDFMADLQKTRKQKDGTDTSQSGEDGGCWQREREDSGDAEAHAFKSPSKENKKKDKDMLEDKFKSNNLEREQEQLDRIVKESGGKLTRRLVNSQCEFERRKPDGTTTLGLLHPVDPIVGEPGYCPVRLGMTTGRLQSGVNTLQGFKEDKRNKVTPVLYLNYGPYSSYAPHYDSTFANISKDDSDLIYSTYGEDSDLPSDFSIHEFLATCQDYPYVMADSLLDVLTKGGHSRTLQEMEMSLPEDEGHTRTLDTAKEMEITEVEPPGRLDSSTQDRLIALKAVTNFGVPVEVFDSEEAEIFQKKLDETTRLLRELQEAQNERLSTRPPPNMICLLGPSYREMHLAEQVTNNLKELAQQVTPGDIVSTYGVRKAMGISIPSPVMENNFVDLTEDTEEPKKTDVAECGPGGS

A204 = assay: Cell viability (A204 cells) (CellTiterGlo); conditions: Homo sapiens

COc1cc(-c2cn(C)c(=O)c3cnccc23)cc(OC)c1CN1CCN(CCCCCOc2cc(-c3scnc3C)ccc2CNC(=O)[C@@H]2C[C@@H](O)CN2C(=O)[C@@H](NC(=O)C2(F)CC2)C(C)(C)C)CC1
active: EC50 (EOL1) 3.4 nM | DC50 [1] 4.5 nM | EC50 (A204) 39.8 nM

Reference: ChEMBL document CHEMBL5463724, “Data for DCP probe VZ185” (2023)
